Values joined by “and” are separate entries in the source; they are usually repeats but may differ in a detail not shown here. Equal entries are not always repeated. Where two headings read alike, the source gives them in different places.
Legend:
[1] = tested on: PrP^Sc in dividing ScN2a-cl3 cells; format: cell-based, mouse; design: Dividing ELISA pEC50 (μM) 1st Expt. / Dividing ELISA pEC50 (μM) 2nd Expt. / Dividing ELISA pEC50 (μM) 3rd Expt. / Dividing ELISA pEC50 (μM) Mean: unit not given here
in vitro = details: mouse
[2] = tested on: PrP^Sc in ScN2a-cl3 cells; format: cell-based, mouse; details: read-out: Potency (nM) Western (EC50); Western immunoblots, dividing ScN2a-cl3 cells
[3] = tested on: PrP^Sc in nondividing ScN2a-cl3 cells; format: cell-based, mouse; details: read-out: Non-Dividing ELISA EC50 (μM) Mean (n = 3); ScN2a-c13 non-dividing cells; mean n = 3
N2a-cl3 cells = assay: cells; details: Mus musculus, N2a-cl3, read-out: Dividing Calcein EC50 (μM) Mean (n = 3)
[4] = Hepatic microsomal stability, rat; details: […]
[5] = read-out: Antiprion activity EC50, thienopyridine analogs
[6] = read-out: Dividing ELISA EC50 (μM) 3rd Expt., ScN2a-cl3 dividing cells, 3rd determination
[7] = read-out: Dividing ELISA EC50 (μM) 1st Expt., ScN2a-cl3 dividing cells, 1st determination
[8] = read-out: Dividing ELISA EC50 (μM) 2nd Expt., ScN2a-cl3 dividing cells, 2nd determination
[9] = read-out: Dividing ELISA EC50 (μM) Mean, ScN2a-cl3 dividing cells, mean of three determinations
[10] = ScN2a-cl3 dividing cells, 1st determination
[11] = ScN2a-cl3 dividing cells, 2nd determination
[12] = ScN2a-cl3 dividing cells, 3rd determination
[13] = ScN2a-cl3 dividing cells, mean of three determinations

| SMILES | EC50 [1, 5] | CC50 (in vitro) [nM] | EC50 ([1]; read-out: Potency (nM) ELISA (EC50), PrP^Sc ELISA, dividing ScN2a-cl3 cells) [nM] | EC50 [2] [nM] | EC50 [3] [µM] | EC50 (N2a-cl3 cells) [µM] | Microsome stability T1/2 [4] [min] | EC50 [1, 6] [nM] | melting point [°C] | EC50 [1, 7] [nM] | EC50 [1, 8] [nM] | EC50 [1, 9] [nM] | Dividing ELISA pEC50 (μM) 1st Expt. [1, 10] | Dividing ELISA pEC50 (μM) 2nd Expt. [1, 11] | Dividing ELISA pEC50 (μM) 3rd Expt. [1, 12] | Dividing ELISA pEC50 (μM) Mean [1, 13] | EC50 ([1]; read-out: Antiprion activity ScN2a-cl3 EC50, ScN2a-cl3 cells) [nM] |
| --- | --- | --- | --- | --- | --- | --- | --- | --- | --- | --- | --- | --- | --- | --- | --- | --- | --- |
| COc1ccc(NC(=O)c2sc3nc(-c4cccs4)ccc3c2N)cc1OC [IND-0024573] | 396 nM | > 10000 | – | – | – | – | – | – | – | – | – | – | – | – | – | – | – |
| CSc1ccc(NC(=O)c2sc3nc(-c4cccs4)ccc3c2N)cc1 [IND-0024576] | 77 nM | > 10000 | – | – | – | – | – | – | – | – | – | – | – | – | – | – | – |
| Nc1c(C(=O)Nc2cc(F)ccc2F)sc2nc(-c3cccs3)ccc12 [IND-0024581] | 2060 nM | > 10000 | – | – | – | – | – | – | – | – | – | – | – | – | – | – | – |
| O=C(Nc1nc(-c2ccc3ccccc3c2)cs1)C1CC1 [IND-0030883] | – | > 10000 | 913 | 570 | – | – | – | – | – | – | – | – | – | – | – | – | – |
| COc1ccc(-c2ccc3c(N)c(C(=O)Nc4ccc5c(c4)OCCO5)sc3n2)cc1 [IND-0035833] | > 10000 nM | > 10000 | – | – | – | – | – | – | – | – | – | – | – | – | – | – | – |
| COc1ccc(-c2ccc3c(N)c(C(=O)Nc4ccc(F)cc4)sc3n2)cc1 [IND-0035860] | 57 nM and 59 nM | > 10000 | – | – | – | – | – | – | – | – | – | – | – | – | – | – | – |
| COc1ccc(-c2ccc3c(N)c(C(=O)Nc4ccc(C(C)=O)cc4)sc3n2)cc1 [IND-0037769] | 97 nM | > 10000 | – | – | – | – | – | – | – | – | – | – | – | – | – | – | – |
| COc1ccc(-c2ccc3c(N)c(C(=O)NCCc4ccc(OC)c(OC)c4)sc3n2)cc1 [IND-0037771] | 419 nM | > 10000 | – | – | – | – | – | – | – | – | – | – | – | – | – | – | – |
| COc1ccc(CNC(=O)c2sc3nc(-c4ccc(OC)cc4)ccc3c2N)cc1 [IND-0040541] | > 10000 nM | > 10000 | – | – | – | – | – | – | – | – | – | – | – | – | – | – | – |
| Nc1c(C(=O)Nc2ccc(F)cc2)sc2nc(-c3ccc4c(c3)OCO4)ccc12 [IND-0042063] | 613 nM | > 10000 | – | – | – | – | – | – | – | – | – | – | – | – | – | – | – |
| COc1cc(NC(=O)c2sc3nc(-c4cccs4)ccc3c2N)cc(OC)c1OC [IND-0042103] | > 10000 nM | > 10000 | – | – | – | – | – | – | – | – | – | – | – | – | – | – | – |
| COc1ccc(-c2ccc3c(N)c(C(=O)Nc4ccc(F)cc4)sc3n2)cc1OC [IND-0044746] | 227 nM | > 10000 | – | – | – | – | – | – | – | – | – | – | – | – | – | – | – |
| COc1ccc(Nc2nc(-c3ccc(OC)c(OC)c3)cs2)nc1 [compound 13, [4-(3,4-dimethoxyphenyl)-thiazol-2-yl]-(5-methoxypyridin-2-yl)-amine] | – | – | – | – | > 32 | > 32 | 45 | 917 | – | – | – | – | – | – | – | – | – |
| Cc1ccc(Nc2nc(-c3ccccn3)cs2)nc1 [compound 24, (5-Methylpyridin-2-yl)-(4-pyridin-2-yl-thiazol-2-yl)-amine] | – | – | – | – | > 32 | 0.389 | – | 449 | 184 to 190 | 1620 | 507 | 860 | – | – | – | – | – |
| Cc1ccc(Nc2nc(-c3ccccc3)cs2)nc1 [compound 25, (5-Methylpyridin-2-yl)-(4-phenylthiazol-2-yl)-amine] | – | – | – | – | > 32 | > 32 | 10 | 5740 | – | 13000 | 4900 | 7880 | 4.89 | 5.31 | 5.24 | 5.15 | 7880 |
| Cc1ccc(Nc2nc(-c3ccc(-c4ccccn4)s3)cs2)nc1 [compound 26, (5-Methylpyridin-2-yl)-[4-(5-pyridin-2-yl-thiophen-2-yl)-thiazol-2-yl]-amine] | – | – | – | – | > 32 | > 32 | – | 1220 | 197 to 199 | 1580 | 879 | 1230 | 5.80 | 6.06 | 5.91 | 5.92 | – |
| c1ccc(-c2csc(Nc3cc4ccccc4cn3)n2)cc1 [compound 33, Isoquinolin-3-yl-(4-phenylthiazol-2-yl)-amine] | – | – | – | – | > 32 | > 32 | – | 4320 | 265 to 267 | 2060 | 2850 | 3080 | 5.69 | 5.55 | 5.37 | 5.53 | – |
| c1ccc(-c2ccc(-c3csc(Nc4cc5ccccc5cn4)n3)s2)nc1 [compound 34, Isoquinolin-3-yl-[4-(5-pyridin-2-yl-thiophen-2-yl)-thiazol-2-yl]-amine] | – | – | – | – | > 32 | > 32 | – | 2160 | 246 to 248 | 2250 | 1610 | 2010 | 5.65 | 5.79 | 5.67 | 5.70 | – |
| c1ccc(-c2cc(-c3csc(Nc4ccccn4)n3)on2)cc1 [compound 42, [4-(3-Phenylisoxazol-5-yl)-thiazol-2-yl]pyridin-2-yl-amine] | – | – | – | – | > 32 | > 32 | – | 585 | 211 to 215 | 629 | 599 | 604 | 6.20 | 6.22 | 6.23 | 6.22 | – |
| Cc1cccc(Nc2nc(-c3cc(-c4ccccc4)no3)cs2)n1 [compound 44, (6-Methylpyridin-2-yl)-[4-(3-phenylisoxazol-5-yl)-thiazol-2-yl]-amine] | – | – | – | – | > 32 | > 32 | – | 794 | 291 to 293 | 926 | 733 | 818 | 6.03 | 6.13 | 6.10 | 6.09 | – |
| c1ccc(-c2cc(-c3csc(Nc4ccncc4)n3)on2)cc1 [compound 45, [4-(3-Phenylisoxazol-5-yl)-thiazol-2-yl]-pyridin-4-yl-amine] | – | – | – | – | > 32 | > 32 | – | 6830 | 269 to 270 | 3160 | 3250 | 4420 | 5.50 | 5.49 | 5.17 | 5.38 | – |
| COc1ccc(NC(=O)c2csc(Nc3ccc(C)cn3)n2)cc1OC [compound 46, 2-(5-Methylpyridin-2-ylamino)-thiazole-4-carboxylic acid (3,4-dimethoxyphenyl)-amide] | – | – | – | – | > 32 | > 32 | – | 2200 | 212 to 214 | 3190 | 1930 | 2440 | 5.50 | 5.72 | 5.66 | 5.62 | – |
| COc1ccc(-c2csc(NC(=O)c3cc4ccccc4cn3)n2)cc1OC [compound 47, Isoquinoline-3-carboxylic acid [4-(3,4-dimethoxyphenyl)-thiazol-2-yl]amide] | – | – | – | – | > 10 | > 10 | – | 10800 | 228 to 230 | 9810 | 3930 | 8180 | 5.01 | 5.41 | 4.97 | 5.13 | – |
| COc1ccc(-c2csc(C(=O)Nc3cc4ccccc4cn3)n2)cc1OC [compound 48, 4-(3,4-dimethoxyphenyl)-thiazole-2-carboxylic acid isoquinolin-3-ylamide] | – | – | – | – | > 10 | > 10 | – | > 10000 | 196 to 202 | > 10000 | > 10000 | > 10000 | >4.5 | >4.5 | >4.5 | – | – |
| COc1ccc(-c2csc(N(C)c3cc4ccccc4cn3)n2)cc1OC [compound 49, [4-(3,4-dimethoxyphenyl)-thiazol-2-yl]-isoquinolin-3-yl-methyl-amine] | – | – | – | – | > 10 | > 10 | – | 83 | 165 to 166 | 152 | 196 | 144 | 6.82 | 6.71 | 7.08 | 6.87 | – |
| COc1ccc(-c2csc(N(C(C)=O)c3cc4ccccc4cn3)n2)cc1OC [compound 50, N-[4-(3,4-dimethoxyphenyl)-thiazol-2-yl]-N-isoquinolin-3-yl-acetamide] | – | – | – | – | > 10 | > 10 | – | 65 | 164 to 165 | 91 | 89 | 82 | 7.04 | 7.05 | 7.19 | 7.09 | – |
